Test results as given in article PMC10303159, “Conjugation of Triterpenic Acids of Ursane and Oleanane Types with Mitochondria-Targeting Cation F16 Synergistically Enhanced Their Cytotoxicity against Tumor Cells” (Membranes, 2023).

Legend:
rat liver mitochondria [1] = assay: Respiration of isolated mitochondria fueled by glutamate and malate; format: biochemical
Protocol: (§1) Mitochondria were obtained from the liver of male Wistar rats (210–250 g) using the differential centrifugation method. The detailed procedure and composition of the isolation media were described earlier. The suspension of isolated mitochondria contained about 60–70 mg of mitochondrial protein per ml (determined by the Bradford method).
(§2) The rate of O2 consumption by mitochondrial samples was estimated using Oxygraph Plus (Hansatech Instruments Ltd., Pentney, King’s Lynn, UK). The reaction medium included 200 mM sucrose, 20 mM KCl, 0.5 mM EGTA, 5 mM KH2PO4, and 10 mM Hepes/KOH, pH 7.4. The following combinations of substrates and reagents were used: 2.5 mM potassium glutamate + 2.5 mM potassium malate and 5 mM potassium succinate + 1 µM rotenone. Under these conditions, it is possible to assess the oxygen-consuming capacity of mitochondria through complexes I and II of the electron transport chain. To determine the rates of the phosphorylating respiration (State 3) and uncoupled respiration (State 3UDNP) of the mitochondria, 200 µM ADP and 50 µM 2,4-dinitrophenol (DNP) were added sequentially. The concentration of mitochondrial protein was 1 mg/mL.

rat liver mitochondria [2] = assay: Mitochondrial membrane potential (TPP-sensitive electrode); format: biochemical; details: glutamate + malate or succinate + rotenone, Figure 5
Protocol: as §1
The mitochondrial membrane potential (Δψ) was measured using a penetrating tetraphenylphosphonium bromide (TPP) cation and a TPP-sensitive electrode (Nico-Analyte Ltd., Moscow, Russia) as described previously. The concentration of mitochondrial protein was 1 mg/mL.

[3] = tested on: A549 cells (human lung carcinoma); assay: MTT cytotoxicity assay, A549; format: cell-based; details: Homo sapiens, A549, 48 h, MTT assay, 48 h of treatment, mean ± SEM
From the text: (§3) All cell lines used in this study (human non-small cell lung cancer—H1299 (Accession Number—CRL-5803), human lung carcinoma—A549 (Accession Number—CCL-185), human breast adenocarcinoma—MCF-7 (Accession Number—HTB-22), human breast ductal carcinoma—BT474 (Accession Number—HTB-20)) were purchased from American Type Culture Collection (ATCC, Manassas, VA, USA). Human primary dermal fibroblasts (HPDF) derived from a patch of skin of healthy donors (n = 3) were obtained from the biobank of the Institute for Regenerative Medicine, Lomonosov Moscow State University, collection ID: MSU_FB (https://human.depo.msu.ru (accessed on 14 September 2021)). Cells were grown in DMEM media supplemented with 10% fetal bovine serum, 100 μg/mL gentamycin, and 2 mM of glutamine at 37 °C in a 5% CO2 atmosphere.
(§4) To carry out the MTT assay, 3500 cells per well were seeded in 96-well plates. […] DMSO was used as a control. […] After removing the thiazol-containing medium, 150 μL of isopropyl alcohol (supplemented with 40 mM HCl and 0.1% NP-40) was added to dissolve the MTT-formazan salt. The absorbance at 570 and 630 nm (reference) was measured using a BioRad iMark microplate reader (BioRad, Hercules, CA, USA). Four biological replicates were used for the experiment. The results were processed with Excel software (version number: 14.0.6023.1000 (32-bit)). IC50 values were calculated by using AAT Bioquest online calculator (https://www.aatbio.com/tools/ic50-calculator, accessed on 15 May 2023) and are represented as the mean ± SEM.

[4] = tested on: Human primary dermal fibroblasts (HPDF); assay: MTT cytotoxicity assay, HPDF; format: cell-based
From the text: as §3, §4

rat liver mitochondria [5] = assay: Mitochondrial H2O2 generation (Amplex Red); format: biochemical; details: 5 μM
Protocol: as §1
The fluorescent probe Amplex Red (λex = 560 nm; λem = 590 nm) and a plate reader Varioskan Lux were used to register mitochondrial H2O2 generation. In this case, 0.15 mg of mitochondrial protein was incubated in the buffer containing 210 mM mannitol, 70 mM sucrose, 10 μM EGTA, 10 µM Amplex Red, 1 µM rotenone, 10 µM EGTA, horseradish peroxidase (HRP 1 a.u./mL), 10 mM Hepes/KOH, and at a pH of 7.4. […] The kinetics of H2O2 generation was recorded for three minutes.

rat liver mitochondria [6] = assay: Respiration of isolated mitochondria fueled by succinate; format: biochemical
Protocol: as §1, §2

BT474 cells = assay: Oxidative stress assay (Muse Oxidative Stress Kit), BT474; format: cell-based, human; details: BT474, 2 μM
Protocol: Oxidative stress was assessed after cell culture and incubation (as described above). For this, cells were harvested by trypsinization, washed with ice-cold PBS buffer (pH 7.4), and centrifuged (1000 rpm, 5 min). The resulting cells were resuspended in PBS. Cell population analysis for oxidative stress was performed on a Muse cell analyzer (Merck Millipore, Burlington, MA, USA) using the Muse Oxidative Stress Kit (MCH100111) according to the manufacturer’s protocol.

[7] = tested on: MCF-7 cells (human breast adenocarcinoma); assay: MTT cytotoxicity assay, MCF-7; format: cell-based
From the text: as §3
(§5) To carry out the MTT assay, 3500 cells per well were seeded in 96-well plates. A day after the seeding, triterpenoids or their derivatives dissolved in DMSO were added. DMSO was used as a control. At 48 h after cell seeding, 10 μL of 5 mg/mL Thiazolyl Blue (Paneko, Russia) solution was added to each well and cells were kept for 3 h at 37 °C in a CO2 incubator. After removing the thiazol-containing medium, 150 μL of isopropyl alcohol (supplemented with 40 mM HCl and 0.1% NP-40) was added to dissolve the MTT-formazan salt. The absorbance at 570 and 630 nm (reference) was measured using a BioRad iMark microplate reader (BioRad, Hercules, CA, USA). Four biological replicates were used for the experiment. The results were processed with Excel software (version number: 14.0.6023.1000 (32-bit)). IC50 values were calculated by using AAT Bioquest online calculator (https://www.aatbio.com/tools/ic50-calculator, accessed on 15 May 2023) and are represented as the mean ± SEM.

[8] = tested on: BT474 cells (human breast ductal carcinoma); assay: MTT cytotoxicity assay, BT474; format: cell-based; details: BT-474, 48 h of treatment, mean ± SEM
From the text: as §3, §5

[9] = tested on: H1299 cells (human non-small cell lung cancer); assay: MTT cytotoxicity assay, H1299; format: cell-based; details: Homo sapiens, NCI-H1299, 48 h of treatment, mean ± SEM
From the text: as §3, §5

CC1(C)CCC2(C(=O)OCCCC[n+]3ccc(C=Cc4c[nH]c5ccccc45)cc3)CCC3(C)C(=CCC4C5(C)CCC(O)C(C)(C)C5CCC43C)C2C1 (stereo not shown) [OA-F16]
ADP/O (rat liver mitochondria [1]; 10 μM): 2.80 ± 0.13 rel. un. | RC (state 3/state 4) (rat liver mitochondria [1]; 10 μM): 2.24 ± 0.11 rel. un. | State 2 respiration (rat liver mitochondria [1]; 10 μM): 6.47 ± 0.27 nmol O2/min/mg Protein | State 3UDNP respiration (rat liver mitochondria [1]; 10 μM): 31.34 ± 0.49 nmol O2/min/mg Protein | State 3 respiration (rat liver mitochondria [1]; 10 μM): 23.82 ± 0.53 nmol O2/min/mg Protein | State 4 respiration (rat liver mitochondria [1]; 10 μM): 10.65 ± 0.24 nmol O2/min/mg Protein | ADP/O (rat liver mitochondria [1]; 20 μM): 0.64 ± 0.05 rel. un. | RC (state 3/state 4) (rat liver mitochondria [1]; 20 μM): 1.03 ± 0.04 rel. un. | State 2 respiration (rat liver mitochondria [1]; 20 μM): 15.38 ± 0.30 nmol O2/min/mg Protein | State 3UDNP respiration (rat liver mitochondria [1]; 20 μM): 23.24 ± 0.61 *#^γ nmol O2/min/mg Protein | State 3 respiration (rat liver mitochondria [1]; 20 μM): 17.02 ± 0.97 nmol O2/min/mg Protein | State 4 respiration (rat liver mitochondria [1]; 20 μM): 16.55 ± 0.54 nmol O2/min/mg Protein | Effect on membrane potential of organelles (rat liver mitochondria [2]): the most effective | IC50 [3]: 0.74 ± 0.09 µM | IC50 ([4]; Homo sapiens, Fibroblast, MTT assay, 48 h of treatment, mean ± SEM): 2.05 ± 0.58 µM | Selectivity index (SI) ([4]; between tumor cells H1299, A549 and MCF-7 and fibroblasts): 1.3–2.8 | Effect on production of H2O2 by organelles (rat liver mitochondria [5]): antioxidant effect | ADP/O (rat liver mitochondria [6]; 10 μM): 1.41 ± 0.09 rel. un. | RC (state 3/state 4) (rat liver mitochondria [6]; 10 μM): 2.83 ± 0.20 rel. un. | State 2 respiration (rat liver mitochondria [6]; 10 μM): 14.39 ± 0.65 nmol O2/min/mg Protein | State 3UDNP respiration (rat liver mitochondria [6]; 10 μM): 69.57 ± 1.73 nmol O2/min/mg Protein | State 3 respiration (rat liver mitochondria [6]; 10 μM): 48.46 ± 0.82 nmol O2/min/mg Protein | State 4 respiration (rat liver mitochondria [6]; 10 μM): 17.22 ± 0.93 nmol O2/min/mg Protein | ADP/O (rat liver mitochondria [6]; 20 μM): 1.15 ± 0.05 rel. un. | RC (state 3/state 4) (rat liver mitochondria [6]; 20 μM): 1.25 ± 0.10 rel. un. | State 2 respiration (rat liver mitochondria [6]; 20 μM): 14.05 ± 0.18 nmol O2/min/mg Protein | State 3UDNP respiration (rat liver mitochondria [6]; 20 μM): 56.46 ± 4.21 nmol O2/min/mg Protein | State 3 respiration (rat liver mitochondria [6]; 20 μM): 41.57 ± 1.36 nmol O2/min/mg Protein | State 4 respiration (rat liver mitochondria [6]; 20 μM): 33.23 ± 0.75 nmol O2/min/mg Protein | Effect on level of ROS-positive cells (BT474 cells): significantly increase the level of ROS-positive cells | IC50 ([7]; Homo sapiens, MCF7, MTT assay, 48 h of treatment, mean ± SEM): 1.52 ± 0.16 µM | Chou–Talalay combination index (CI) ([7]; MCF7 cells, based on IC50 values for parent acid, F16 [23] and conjugate, CI < 1 synergism): 0.03 | IC50 [8]: 4.34 ± 0.28 µM | IC50 [9]: 0.93 ± 0.07 µM
